Data taken from publication PMC12415477, “Electrostatic interactions influence diazabicyclooctane inhibitor potency against OXA-48-like β-lactamases” (RSC Medicinal Chemistry, 2025).

Columns and labels:
[1] = target: OXA-405 β-lactamase (mature, residues 23-261); experiment: crystal structure; X-ray structures of the purified enzymes, uncomplexed and soaked with nacubactam or avibactam; crystals grown in 0.1 M HEPES pH 7.5 or 0.1 M Tris pH 8.5-9.0 with PEG 400 or PEG 550; homodimer seen in the crystal, chloride ion at the dimer interface
OXA-48 [2] = target: T1, OXA-48 (Klebsiella pneumoniae, UniProt Q6XEC0); settings: cited from earlier work; for Binding affinities and complex residence times against OXA-48: in words
T1 construct: pOPINF-OXA-48^(23-265) (previously cloned as described in Cahill et al); hexahistidine tag with 3C protease site (pOPINF) (N, cleaved yes); made in house; host or cells: E. coli BL21-DE3

[3] = tested on: O=C(Cc1cccs1)N[C@@H]1C(=O)N2C(C(=O)O)=C(/C=C/c3ccc([N+](=O)[O-])cc3[N+](=O)[O-])CS[C@H]12; experiment: purified protein, by the assay type; settings: other: 1 nM enzyme, pH 7.6
OXA-48 [4] = target: T1, OXA-48; experiment: IC50 determination, inhibition of nitrocefin hydrolysis by OXA-48; assay type: biochemical; settings: for Fold difference in IC50, nacubactam versus avibactam, OXA-48: ratio nacubactam IC50 / avibactam IC50
OXA-163 [5] = experiment: IC50 determination, inhibition of nitrocefin hydrolysis by OXA-163; assay type: biochemical; settings: IC50 OXA-48 / IC50 OXA-163
OXA-405 [6] = target: T2, OXA-405 (Klebsiella pneumoniae, UniProt Q6XEC0, DEL213-216); experiment: IC50 determination, inhibition of nitrocefin hydrolysis by OXA-405; assay type: biochemical; set-up: genes encoding the mature OXA-163^23-261 (GenBank HQ700343) and OXA-405^23-261 (GenBank KM589641) open reading frames; hexahistidine tag with 3C protease site (pOPINF) (N, cleaved yes); made in house; host or cells: E. coli BL21-DE3
OXA-405 [7] = experiment: as above; assay type: biochemical; settings: IC50 OXA-48 / IC50 OXA-405
OXA-163 [8] = target: T3, OXA-163 (Klebsiella pneumoniae, UniProt Q6XEC0, DEL214-217/S212D); experiment: IC50 determination, inhibition of nitrocefin hydrolysis by OXA-163; assay type: biochemical; set-up: genes encoding the mature OXA-163^23-261 (GenBank HQ700343); hexahistidine tag with 3C protease site (pOPINF) (N, cleaved yes); made in house; host or cells: E. coli BL21-DE3
OXA-163 [9] = target: T3, OXA-163; settings: 1 nM enzyme, pH 7.6
Procedure: (§1) All enzyme kinetics experiments were performed in 50 mM HEPES pH 7.6, 50 mM NaPO4 buffer supplemented with 50 mM NaHCO3 and 50 μg mL^−1 bovine serum albumin (BSA) in 96-well half area plates (Greiner, 675801).

OXA-405 [10] = target: T2, OXA-405; settings: 1 nM enzyme, pH 7.6
Procedure: as §1

crystal structure = target: the molecule itself; experiment: crystal structure
[11] = ratio nacubactam IC50 / avibactam IC50

OXA-405 β-lactamase (mature, residues 23-261) (enzyme)
stoichiometry N [1]: 2

O=C(NO[C@@H]1CCNC1)[C@@H]1CC[C@@H]2CN1C(=O)N2OS(=O)(=O)O [FPI-1465]
Binding affinities and complex residence times against OXA-48 (OXA-48 [2]): lower binding affinities and complex residence times

OXA-48 (Klebsiella pneumoniae)
Km [3]: 114.4 µM
kcat [3]: 515.0 s⁻¹
kcat/Km [3]: 5.2e+06 M⁻¹ s⁻¹

O=C(NNC(=O)[C@@H]1CC[C@@H]2CN1C(=O)N2OS(=O)(=O)O)C1CNC1 [FPI-1602]
Binding affinities and complex residence times against OXA-48 (OXA-48 [2]): lower binding affinities and complex residence times

NCCONC(=O)[C@@H]1CC[C@@H]2CN1C(=O)N2OS(=O)(=O)O [nacubactam]
IC50 (OXA-48 [4]; 1 nM enzyme pre-incubated 10 min with inhibitor, 75 μM nitrocefin, pH 7.6, read-out: IC50 against OXA-48): 19.9 µM
Fold difference in IC50, nacubactam versus avibactam, OXA-48 (OXA-48 [4]): 77 fold
Fold difference in IC50, nacubactam versus avibactam, OXA-48 (OXA-48 [4]; listed as Nacubactam): 76.6 fold
Increase in inhibition potency towards OXA-163 compared to OXA-48 (OXA-163 [5]): 16.2 fold
IC50 (OXA-405 [6]): 10.6 µM
Fold difference in IC50, nacubactam versus avibactam, OXA-405 (OXA-405 [6]; [11]): 10.7 fold
Increase in inhibition potency towards OXA-405 compared to OXA-48 (OXA-405 [7]): 1.9 fold
IC50 (OXA-163 [8]): 1.23 µM
Fold difference in IC50, nacubactam versus avibactam, OXA-163 (OXA-163 [8]; [11]): 6.2 fold
Decrease in enzyme : inhibitor residence time (t1/2) compared to avibactam, OXA-48 (OXA-48 [2]): approximately 37 fold
Increase in dissociation rate (koff) compared to avibactam, OXA-48 (OXA-48 [2]): ~36 fold

O=C(Cc1cccs1)N[C@@H]1C(=O)N2C(C(=O)O)=C(/C=C/c3ccc([N+](=O)[O-])cc3[N+](=O)[O-])CS[C@H]12 [nitrocefin]
kcat, nitrocefin hydrolysis by OXA-163 (OXA-163 [9]): 64.5 s⁻¹
Km (OXA-163 [9]; read-out: KM, nitrocefin hydrolysis by OXA-163): 13.4 µM
kcat, nitrocefin hydrolysis by OXA-405 (OXA-405 [10]): 113.9 s⁻¹
Km (OXA-405 [10]; read-out: KM, nitrocefin hydrolysis by OXA-405): 33.9 µM

B1: OXA-48 β-lactamase (residues 23-265) (enzyme)
chain: KEWQENKSWNAHFTEHKSQGVVVLWNENKQQGFTNNLKRANQAFLPASTFKIPNSLIALDLGVVKDEHQVFKWDGQTRDIATWNRDHNLITAMKYSVVPVYQEFARQIGEARMSKMLHAFDYGNEDISGNVDSFWLDGGIRISATEQISFLRKLYHNKLHVSERSQRIVKQAMLTEANGDYIIRAKTGYSTRIEPKIGWWVGWVELDDNVWFFAMNMDMPTSDGLGLRQAITKEVLKQEKIIP
notes: also called OXA-48^(23-265); OXA-48 carbapenemase; source: E. coli BL21-DE3, purified (Ni-NTA, 3C protease cleavage, second Ni-NTA, Superdex 75 SEC)
stoichiometry N (crystal structure): 2

B2: OXA-163 β-lactamase (mature, residues 23-261) (enzyme)
chain: KEWQENKSWNAHFTEHKSQGVVVLWNENKQQGFTNNLKRANQAFLPASTFKIPNSLIALDLGVVKDEHQVFKWDGQTRDIATWNRDHNLITAMKYSVVPVYQEFARQIGEARMSKMLHAFDYGNEDISGNVDSFWLDGGIRISATEQISFLRKLYHNKLHVSERSQRIVKQAMLTEANGDYIIRAKTGYDTKIGWWVGWVELDDNVWFFAMNMDMPTSDGLGLRQAITKEVLKQEKIIP
notes: source: E. coli BL21-DE3, purified (Ni-NTA, 3C protease cleavage, second Ni-NTA, Superdex 75 SEC)
stoichiometry N (crystal structure): 2
